Experimental data published in US20150216975A1, “NANOVECTOR BASED DRUG DELIVERY SYSTEM FOR OVERCOMING DRUG RESISTANCE” (WILLIAM MARSH RICE UNIVERSITY, priority 2012, published 2015).

Experiments:
[1] = system: glioblastoma cells grown in culture; experiment: Living and dead GBM cell counts after Drug/PEG-HCC with or without Halo (FIG. 2B-2E); type: cell-based, human; settings: for dead cell numbers when Halo is used in conjunction: 24 hours, drug/PEG-HCC with Halo (FIG. 2C)
Protocol: (§1) The drugs (Vin and Doc) were delivered to a final concentration of 100 nM in the form of GFAPAB/Drug/PEG-HCC. In some experiments, pump inhibitors Haloperidol (Halo) and Indomethacin (Indo) were added at a final concentration of 2 μM in the form of Il-13RAB/Inhibitor/PEG-HCC. Controls consisting of unloaded PEG-HCC, drug/inhibitor loaded PEG-HCC, GFAPAB, or saline were also used. Cells were treated for 24 hours with GFAPAB/Drug/PEG-HCC and/or Il-13RAB/Halo/PEG-HCC. Next, the cells were incubated for 1 hour with Rh123, BCECF-AM and Hoe, as previously described. Cells were then imaged at ×30 magnification using filters for Rh123, BCECF and Hoe.
Furthermore, it is shown in FIG. 2C that the dead cell numbers are elevated when Halo is used in conjunction with both Vin and Doc.
FIGS. 2D-2E show additional data relating to Halo-mediated potentiation of Vin, Doc and SN38 toxicity in HADES compositions.

GBM cells = experiment: Potentiation of Vin or Doc toxicity in GBM cells by targeted vs untargeted Halo or Indo via IgG/PEG-HCC delivery, cell numbers (FIG. 3); type: cell-based, human; settings: for cell number (% of control): 24 hours; for increase of toxicity by pump inhibition by Halo (targeted vs untargeted, untargeted averaged to 100%) / increase of toxicity by pump inhibition by Indo (targeted vs untargeted, untargeted averaged to 100%): FIG. 3B
Protocol: To confirm the potentiation effect of chemotherapeutic agents and pump inhibitors, Applicants performed a similar experiment to that shown in FIG. 2. In these experiments, Applicants examined the effects of both inhibitors on both chemotherapeutics. Applicants also inverted the targeting antibodies by utilizing GFAPAB/(Indo or Halo)/PEG-HCC and Il-13RAB/(Doc or Vin)/PEG-HCC. 2 μM Halo/PEG-HCC and Indo/PEG-HCC without antibody targeting were used as controls, which were added with and without 100 nM Vin or Doc as Il-13RAB/Drug/PEG-HCC.
200 nM Il-13RAB/Doc/PEG-HCC caused a drop in cell number to 75% and to 72% (the level seen in the controls) in the presence of (untargeted) Halo/PEG-HCC and Indo/PEG-HCC, respectively. However, targeting of Halo caused a large change in Doc toxicity. The inclusion of an antibody with Halo/PEG-HCC changed the toxicity from 75% to 37%. The inclusion of an antibody with Indo/PEG-HCC changed the Doc toxicity from 72% to 50%.
Vin toxicity was also potentiated in the presence of targeted xenobiotic pump inhibitors. Furthermore, the targeting of Halo dropped the cell numbers from 45% (control number, untargeted) to 27% (targeted). […] However, when Indo was targeted to the GBM cells, this dropped to only 14%. […] Only the potentiating effect is shown, comparing targeted and untargeted xenobiotic pump inhibitors, so that the cell numbers in the presence of untargeted pump inhibitor are averaged to 100%.

[2] = system: xenobiotic pumps in human primary GBM cells; experiment: Retention of xenobiotic pump dye substrates (Rh123, BCECF, Hoe) in GBM cells (FIG. 1, 2A, 2F); type: cell-based; settings: for dye retention, chemotherapeutic drug alone / dye accumulation in drug and inhibitor combinations / dye retention, pump inhibitor loaded on PEG-HCC targeted by IL-13R IgGs: GBM cells; for dye retention, chemotherapeutic drug alone / dye accumulation in drug and inhibitor combinations: 24 hours; for dye retention, chemotherapeutic drug alone: 100 nM as GFAPAB/Drug/PEG-HCC; for dye accumulation in drug and inhibitor combinations: 100 nM drug and 2 μM inhibitor on targeted PEG-HCC (FIG. 2A); for dye retention, pump inhibitor loaded on PEG-HCC targeted by IL-13R IgGs: Il-13RAB/Inhibitor/PEG-HCC (FIG. 2A, 2F); for retention of dyes (Rh123, BCECF, Hoe): human GBM cells, ninety minutes, 20 μM Fumitremorgin C, 200 μM Indomethacin
Excerpt: Applicants investigated the ability of human primary glioma cells to retain dyes in the absence and presence of known drug pump inhibitors. […] After ninety minutes, the cells were fixed using ice-cold 2% paraformaldehyde. The fixed cells were stored overnight in a refrigerator. The cells were then washed three times in phosphate buffered saline at pH 7.4 (PBS) and imaged in a fluorescence microscope.
In this experiment, PEG-HCCs were loaded with Halo, Sulfinpyrazone (Sulf) or Indo. The same methodologies outlined above were used. The constructs were then targeted to GBM cells by IL-13R IgGs.
as §1

[3] = system: HER2-neu+ cervical cancer cells; experiment: Total cell protein of cervical cancer cells after antibody-guided PEG-HCC drugs and pump inhibitors (FIG. 4A); type: cell-based, human; settings: 24 hours
Protocol: (§2) Applicants also investigated whether the potentiation of Vin and Doc toxicity (by Halo and Indo) was applicable to other cancer types. Applicants obtained human breast and cervical cancer cells from the ATCC and grew them in 96 well format.
(§3) In a pair of 96-well plates, confluent cancer cells were treated with 1 μM (Indo or Halo)/PEG-HCC and/or 1 μM (Doc or Vin)/PEG-HCC. The inhibitors were guided to the cell surface using anti-HER2 antibodies. The chemotherapeutics were guided using EGFR antibodies. After incubation for 24 hours, one plate was used to measure total cell protein, and the other was used in dye labeling studies (as described above). This was done for both HER2-neu+ breast and HER2-neu+ cervical cancer cells (where HER2-neu is human epidermal growth factor receptor-2).
100 nM Doc delivered using EGFR IgG yielded 78% of the control, whereas 100 nM Vin yielded 87% of the control. Halo increased the toxicity of Doc, lowering the total protein to 25% of the control. […] Indo increased the toxicity of Doc slightly (from 78% to 68%) and Vin greatly (from 87% to 36%). In the panels of FIG. 4C, the dye retention of these cervical cancer cells is shown under the same conditions. All four compounds cause a significant brightening of the cells.

[4] = system: HER2-neu+ breast cancer cells; experiment: Total cell protein of breast cancer cells after antibody-guided PEG-HCC drugs and pump inhibitors (FIG. 4B); type: cell-based, human; settings: 24 hours
Protocol: as §2, §3
100 nM Doc delivered using EGFR IgG yielded 51% of the control, whereas 100 nM Vin yielded 65% of the control. Halo increased the toxicity of Doc, thereby lowering the total protein to 30% of the control. […] In the panels of FIG. 4D, the dye retention of these breast cancer cells is shown under the same conditions. All four compounds cause a significant brightening of the cells. The inhibitor and chemotherapeutic combination panels also indicate that dye retention is potentiated in all four combinations/permutations.

GBM cells (BT111 cells) = experiment: Toxicity of Doc/Vin and Halo/Indo delivered as peptidyl-PEG-HCC in GBM cells, living cell numbers (FIG. 12); type: cell-based, human; settings: gliomal cells, 24 hours, 50 nM drug; for toxicity in the presence of both pump inhibitors (Halo and Indo): 1 μM Halo and Indo as peptidyl-PEG-HCC; for toxicity on co-incubation with Halo: 1 μM Halo as peptidyl-PEG-HCC (YRWYGYTPQNVI)
Protocol: (§4) In all cases, living cell numbers were calculated at n=6 individual wells and assayed using Hoe. Cells were incubated for 24 hours with Doc or Vin and targeted to the cell surface with peptidyl-PEG-HCC. The targeting peptidyl sequence was DFKLFAVTIKYR, which targets Intigrins αvβ3 and α5β. FIGS. 12B-12C provide data illustrating that drug pump inhibitors Halo and Indo potentiate the effects of Vin and Doc on GBM and breast cancer cells. Cells were incubated with PEG-HCC (control), 50 nM Doc or Vin, or Doc and Vin as peptidyl-PEG-HCC (using DFKLFAVTIKYR targeting Intigrins αvβ3 and α5β). Additionally, these four incubants were treated with PEG-HCC (control), 1 μM Halo or Indo, or Halo and Indo as peptidyl-PEG-HCC (using YRWYGYTPQNVI targeting EGFR).

[5] = system: human breast cancer cells; experiment: Toxicity of Doc/Vin and Halo/Indo delivered as peptidyl-PEG-HCC in breast cancer cells (FIG. 12); type: cell-based; settings: 50 nM drug; for potentiation of toxicity by Indo: 1 μM Indo as peptidyl-PEG-HCC
Protocol: as §4

[6] = 100 nM drug delivered using EGFR IgG, no pump inhibitor
[7] = drug via EGFR IgG plus Indo/PEG-HCC guided by anti-HER2
[8] = drug via EGFR IgG plus Halo/PEG-HCC guided by anti-HER2

## CCc1c2c(nc3ccc(O)cc13)-c1cc3c(c(=O)n1C2)COC(=O)[C@]3(O)CC [SN-38]
[1]; FIGS. 2D-2E
  effect of Halo on toxicity in HADES compositions: minimally affected

## CC[C@]1(O)C[C@@H]2CN(CCc3c([nH]c4ccccc34)[C@@](C(=O)OC)(c3cc4c(cc3OC)N(C)[C@H]3[C@@](O)(C(=O)OC)[C@H](OC(C)=O)[C@]5(CC)C=CCN6CC[C@]43[C@@H]65)C2)C1 [Vin, vinblastine]
GBM cells; drug as Il-13RAB/Drug/PEG-HCC with antibody-targeted Halo/PEG-HCC (GFAPAB)
  cell number (% of control): 27%
GBM cells; drug as Il-13RAB/Drug/PEG-HCC with antibody-targeted Indo/PEG-HCC (GFAPAB)
  cell number (% of control): 14%
GBM cells
  increase of toxicity by pump inhibition by Halo (targeted vs untargeted, untargeted averaged to 100%): approximately 50%
  increase of toxicity by pump inhibition by Indo (targeted vs untargeted, untargeted averaged to 100%): 70%
[1]
  dead cell numbers when Halo is used in conjunction: elevated
[2]
  dye retention, chemotherapeutic drug alone: differentially increase dye retention
  dye accumulation in drug and inhibitor combinations: synergistic effect in dye accumulation
[3]
  effect of Halo on toxicity (in words): slight effect
[3]; [6]
  total cell protein (% of the control): 87%
[3]; [7]
  total cell protein (% of the control): 36%
[4]
  effect of Halo on toxicity (in words): no potentiating effect
[4]; [6]
  total cell protein (% of the control): 65%
[4]; [7]
  total cell protein (% of the control): 33%
GBM cells (BT111 cells)
  toxicity in the presence of both pump inhibitors (Halo and Indo): did not lead to a greater level of toxicity than Indo alone
  toxicity on co-incubation with Halo: moderately enhanced
GBM cells (BT111 cells); 1 μM Indo as peptidyl-PEG-HCC (YRWYGYTPQNVI)
  toxicity in the presence of Indo: more than doubled
[5]
  potentiation of toxicity by Indo: potentiated

## COc1ccc2c(c1)c(CC(=O)O)c(C)n2C(=O)c1ccc(Cl)cc1 [Indo, Indomethacin]
[2]
  dye retention, pump inhibitor loaded on PEG-HCC targeted by IL-13R IgGs: same experimental results were obtained
  retention of dyes (Rh123, BCECF, Hoe): increase dye retention of all dyes

## CC(=O)O[C@@]12CO[C@@H]1C[C@H](O)[C@@]1(C)C(=O)[C@H](O)C3=C(C)[C@@H](OC(=O)[C@H](O)[C@@H](NC(=O)OC(C)(C)C)c4ccccc4)C[C@@](O)([C@@H](OC(=O)c4ccccc4)[C@H]21)C3(C)C [Doc, docetaxel]
GBM cells
  increase of toxicity by pump inhibition by Halo (targeted vs untargeted, untargeted averaged to 100%): approximately 50%
  increase of toxicity by pump inhibition by Indo (targeted vs untargeted, untargeted averaged to 100%): 40%
[1]
  dead cell numbers when Halo is used in conjunction: elevated
[2]
  dye retention, chemotherapeutic drug alone: differentially increase dye retention
  dye accumulation in drug and inhibitor combinations: synergistic effect in dye accumulation
[3]; [6]
  total cell protein (% of the control): 78%
[3]; [8]
  total cell protein (% of the control): 25%
[3]; [7]
  total cell protein (% of the control): 68%
[4]; [6]
  total cell protein (% of the control): 51%
[4]; [8]
  total cell protein (% of the control): 30%
[4]; [7]
  total cell protein (% of the control): 68%
GBM cells (BT111 cells)
  toxicity in the presence of both pump inhibitors (Halo and Indo): greater level of toxicity than Halo or Indo alone
  toxicity on co-incubation with Halo: more enhanced by co-incubation with Halo
[5]; 1 μM Halo and Indo as peptidyl-PEG-HCC
  toxicity with both pump inhibitors (Halo and Indo): greatly by both on combination
[5]; 1 μM Halo as peptidyl-PEG-HCC
  potentiation of toxicity by Halo: potentiated
[5]
  potentiation of toxicity by Indo: potentiated

## COc1ccc2c3c([nH]c2c1)[C@H](C=C(C)C)N1C(=O)[C@@H]2CCCN2C(=O)[C@@H]1C3 [Fumitremorgin C]
[2]
  retention of dyes (Rh123, BCECF, Hoe): increase dye retention of all dyes

## O=C(CCCN1CCC(O)(c2ccc(Cl)cc2)CC1)c1ccc(F)cc1 [Halo, Haloperidol]
[2]
  dye retention, pump inhibitor loaded on PEG-HCC targeted by IL-13R IgGs: same experimental results were obtained
